Assay results published in US8765729B2, “Cancer therapy” (Aeolus Sciences, Inc., priority 2001, dated 2014).
“Also recorded” adds a separate entry of the source. Like-named read-outs stand apart in the source and are kept apart here.

Tests used:
[1] = test system: rat lung epithelial cells, L2; bovine endothelial cells, CPA-47
Method: (§1) Two non-tumor cell lines (rat lung epithelial cells, L2; bovine endothelial cells, CPA-47) and one tumor cell line (human adenocarcinoma lung cells, A549) were examined for cell proliferation in the presence or absence of manganic porphyrins. Cells were plated in 24 well plates at 10,000 cells per well in the presence of cytotoxic agent (0-10 mM paraquat) for 24-48 hours plus increasing concentrations of MnTBAP, MnMm-4-PyP and their zinc analogs.

tumor cells (A549) = test system: tumor cells (A549)
Method: as §1

[2] = test system: bleomycin-induced pulmonary fibrosis; assay: Bleomycin-induced pulmonary fibrosis in mice
Method: Noninvasive measurement of airway constriction in mice. The baseline resistance in unrestrained, conscious mice was assessed by whole body barometric plethysmography (Buxco Electronics, Troy, N.Y.). The techniques used were similar to those described by Zhu et al, J. Clin. Invest. 103(6):779-88 (1999)). Mice were placed in whole body plethysmographs with fast differential transducers interfaced to a computer. Measurements were made of respiratory rates, tidal volumes and enhanced pause (PENH). Airway constriction was expressed as PENH=[(Te/0.3Tr)−1]×[2Pef/3Pif], where Te=expiratory time (seconds), Tr=relaxation time (seconds), Pef=peak expiratory flow ([…]), and Pif=peak inspiratory flow (ml/second). Animals were allowed to equilibrate in the chambers for 15 minutes and then PENH was calculated over a 5-minute period.
Hydroxyproline measurement. The lungs were dried at 80° C. until a constant weight is obtained. The dried lungs were hydrolyzed under vacuum in a glass vial in 1 ml of 12 N HCl at 120° C. overnight. The samples were lyophilized and assayed for hydroxyproline content using chloramine-T as previously described (Woessner, Arch. Biochem. Biophys. 93:440-447 (1961)). Histopathology. The lungs were fixed in 4% paraformaldehyde for 24 hours and then processed for paraffin embedding. Sections of lung were stained with routine hematoxylin and eosin or with a Masson trichrome stain to assess the degree of fibrosis. The extent of lung injury and fibrosis was graded by four pathologists, blinded as to the treatment group, on a scale of one (no injury) to ten (severe injury/fibrosis). The major criteria examined included interstitial thickening, collagen deposition, type 2 cell hyperplasia, and inflammatory cell infiltration. Statistical Analyses. Data was analyzed using a two-way analysis of variance (ANOVA) or a one-way ANOVA if no significant interactions were found with the two-way ANOVA. Significant differences between groups were assessed using a Newman-Keuls multiple comparison test. Data was analyzed using a computer program, Prizm (Graph Pad Software, San Diego, Calif.). Statistical significance was set at p<0.05. Results Toxicity and Pharmacokinetic Assessment of MnTBAP in Mice
Mice were randomized into 4 groups using a two by two contingency table where two groups received either saline or bleomycin (3.5 U/kg body weight) by intratracheal instillation. Two groups also received either saline or MnTBAP (5 mg/kg body weight) by ip injection twice daily for 14 days.
Bleomycin given by intratracheal instillation produces a marked airway and alveolar fibrotic response (Evans et al, Am Rev. Respir. Dis. 125(1):89-94 (1982)). Mice were assessed for changes in airway function by measuring a marker, enhanced pause (PENH), of airway narrowing using non-invasive whole body barometric plethysmography. […] Lung fibrosis was also assessed by measuring hydroxyproline content in the lung as an index of collagen accumulation.
One lung from each mouse was instillation fixed with 4% paraformaldehyde and paraffin embedded for histopathology assessment. Tissue sections were stained with hematoxylin and eosin or with Masson trichrome stain to assess the degree of lung injury/fibrosis.

[3] = Pharmacokinetic profile of MnTBAP in mice (serum and lung); settings: 10 mg/kg ip; for Peak Level (Co): two-compartment fit
[4] = test system: L2, CPA-47 and A549 cells; assay: Cytotoxicity measured by LDH release; settings: 100 μM, 48 hours
mice = settings: 48 hours; for deaths: 4 mice
Method: Animals and treatments. Balb/c male mice that were 6-8 weeks of age were utilized in these studies (Taconic, Germantown, N.Y.). Mice were acclimated to 22° C. in an environmentally controlled room (12-hr light cycles) at least 6 days prior to treatment. Toxicity studies were employed using a moving average method previously described by Weil (Weil, Biometrics 8:249-263 (1952)). Groups of 4 mice were given MnTBAP (50, 88, 153 and 268 mg/kg, ip) and observed over a 48 hour time period.
MnTBAP toxicity was assessed using a moving average method that consisted of four geometric dose groups (50, 88, 153 and 268 mg/kg, ip) of 4 mice each over 48 hours.

## O=C(O)c1ccc(-c2c3nc(c(-c4ccc(C(=O)O)cc4)c4ccc([n-]4)c(-c4ccc(C(=O)O)cc4)c4nc(c(-c5ccc(C(=O)O)cc5)c5ccc2[n-]5)C=C4)C=C3)cc1.[Mn+3] [MnTBAP, manganese (III) tetrakis (4-benzoic acid) porphyrin]
[1]
  cytotoxic effects of paraquat in non-tumor cells: protected non-tumor cells against the cytotoxic effects of paraquat
Tumor cells (A549)
  paraquat-mediated cytotoxicity in tumor cells: potentiated paraquat-mediated cytotoxicity
Tumor cells (A549); A549
  relative efficiency of potentiation of paraquat cytotoxicity: more efficient than MnTM-4-PyP
[2]; 5 mg/kg ip twice daily, 14 days
  decrease in airway constriction (PENH) produced by bleomycin: 30%
[2]; FIG. 8, after 5 days to end of study
  bleomycin-induced weight loss: attenuates bleomycin-induced weight loss
[2]; FIG. 9, PENH and hydroxyproline, 14 days
  bleomycin-induced airway constriction and collagen accumulation: attenuates bleomycin-induced airway constriction and collagen accumulation
[2]; FIGS. 10, 11
  bleomycin-induced lung injury by histopathology: attenuates bleomycin-induced pulmonary injury; also recorded: attenuates bleomycin-induced lung injury
[2]; MnTBAP alone
  PENH marker: did not affect the PENH marker
  hydroxyproline content of the lung: little effect
  lung histology: no effect on lung histology
  pathology score: no effect on the pathology score
[2]; MnTBAP alone 5 mg/kg ip twice daily, 14 days
  weight loss compared to saline control: did not cause weight loss
[2]; bleomycin 3.5 U/kg it plus MnTBAP 5 mg/kg ip twice daily, 14 days, bleomycin alone 20%
  maximum average loss of initial body weight: 10%
[2]; bleomycin plus MnTBAP
  collagen accumulation by trichrome staining: decreased the collagen accumulation
[2]; fibrosis score scale 0-8, 14 days
  attenuation of bleomycin pathology score: 28%
[2]; histopathology, hematoxylin and eosin
  interstitial thickening and inflammatory responses produced by bleomycin: attenuated the marked interstitial thickening and inflammatory responses
[2]; lung, 5 mg/kg ip twice daily, 14 days
  decrease in hydroxyproline content caused by bleomycin: 23%
[2]; physiologic, biochemical and pathology indices
  attenuation of bleomycin-induced increases in the various indices: roughly 30%
[3]
  accumulation in the lung: does not accumulate in the lung
[3]; lung
  Distribution half-life (T1/2): 0.233 h
  Elimination half-life (T1/2): 9.5 h
  Peak Level (Co): 80 μg/g protein
[3]; serum
  Distribution half-life (T1/2): 0.45 h
  Elimination half-life (T1/2): 9.5 h
  Peak Level (Co): 42 mg/L
[4]
  cytotoxicity (LDH release): None of the compounds produced cytotoxicity
mice; 50 mg/kg ip
  deaths: no deaths
mice; 88 mg/kg ip
  deaths: 1
mice; ip, 95% confidence interval 98-104 mg/kg
  LD50: 100 mg/kg
